The values below come from patent US20160108406A1, “METHOD OF REGULATING CFTR EXPRESSION AND PROCESSING” (UNIVERSITY OF IOWA RESEARCH FOUNDATION, priority 2014, published 2016).

In data set [1] the target is T1, ΔF508-CFTR (Homo sapiens, UniProt P13569, DEL508-508).
T1 construct: Here we studied native CFTR, SYVN1 and AMFR gene products in a relevant CF airway epithelial cell line; endogenous in cells; host or cells: CFBE41o- cells (also as polarized ALI cultures)
Nature of the data set: CFTR ubiquitination measurement (anti-HA IP, anti-ubiquitin blot). The following applies: treatment alone; HeLa-ΔF508-CFTR-HA cells; 72 hrs; MG-132 10 μM last hour; relative to siScr. It counts as cell-based. The protocol: Cells were treated with 10 μM MG-132 in the last 1-hour of incubation, and then lysed in lysis buffer (1% Triton, 25 mM Tris pH 7.4, 150 mM NaCl, protease inhibitors (cOmplete™, mini, EDTA-free, Roche), 5 mM N-ethylmaleimide (NEM) and 20 μM MG-132) for 30 min at 4° C. The lysates were centrifuged at 14,000 rpm for 20 min at 4° C., and the supernatant quantified by BCA Protein Assay kit (Pierce). CFTR was precipitated with the anti-HA antibody. The immunoprecipitates were analyzed by immunoblotting with anti-Ub and anti-HA antibodies. CFTR ubiquitination level with molecular masses >180 kDa was measured by densitometry and normalized for the CFTR level in the precipitate.
Immunoprecipitation (IP) experiments were performed in HeLa cells stably expressing ΔF508-CFTR-HA. To IP ΔF508-CFTR, cells were lysed (as described above), and supernatant (20-50 μg of protein) was incubated with either anti-HA (to IP CFTR) or anti-AMFR for 1 h at 4° C., followed by incubation with protein G-agarose (Invitrogen) for 1 h at 4° C. Immunoprecipitates were washed 4 times with lysis buffer and eluted in 6× sample-SDS buffer. Samples were analyzed by immunoblotting as described above.

Data set [2] has as its system ΔF508-CFTR. The following applies: primary CF airway epithelia; reference 18; cited from earlier work.

T1 sequence (P13569 with tags, fused parts or gaps DEL508-508): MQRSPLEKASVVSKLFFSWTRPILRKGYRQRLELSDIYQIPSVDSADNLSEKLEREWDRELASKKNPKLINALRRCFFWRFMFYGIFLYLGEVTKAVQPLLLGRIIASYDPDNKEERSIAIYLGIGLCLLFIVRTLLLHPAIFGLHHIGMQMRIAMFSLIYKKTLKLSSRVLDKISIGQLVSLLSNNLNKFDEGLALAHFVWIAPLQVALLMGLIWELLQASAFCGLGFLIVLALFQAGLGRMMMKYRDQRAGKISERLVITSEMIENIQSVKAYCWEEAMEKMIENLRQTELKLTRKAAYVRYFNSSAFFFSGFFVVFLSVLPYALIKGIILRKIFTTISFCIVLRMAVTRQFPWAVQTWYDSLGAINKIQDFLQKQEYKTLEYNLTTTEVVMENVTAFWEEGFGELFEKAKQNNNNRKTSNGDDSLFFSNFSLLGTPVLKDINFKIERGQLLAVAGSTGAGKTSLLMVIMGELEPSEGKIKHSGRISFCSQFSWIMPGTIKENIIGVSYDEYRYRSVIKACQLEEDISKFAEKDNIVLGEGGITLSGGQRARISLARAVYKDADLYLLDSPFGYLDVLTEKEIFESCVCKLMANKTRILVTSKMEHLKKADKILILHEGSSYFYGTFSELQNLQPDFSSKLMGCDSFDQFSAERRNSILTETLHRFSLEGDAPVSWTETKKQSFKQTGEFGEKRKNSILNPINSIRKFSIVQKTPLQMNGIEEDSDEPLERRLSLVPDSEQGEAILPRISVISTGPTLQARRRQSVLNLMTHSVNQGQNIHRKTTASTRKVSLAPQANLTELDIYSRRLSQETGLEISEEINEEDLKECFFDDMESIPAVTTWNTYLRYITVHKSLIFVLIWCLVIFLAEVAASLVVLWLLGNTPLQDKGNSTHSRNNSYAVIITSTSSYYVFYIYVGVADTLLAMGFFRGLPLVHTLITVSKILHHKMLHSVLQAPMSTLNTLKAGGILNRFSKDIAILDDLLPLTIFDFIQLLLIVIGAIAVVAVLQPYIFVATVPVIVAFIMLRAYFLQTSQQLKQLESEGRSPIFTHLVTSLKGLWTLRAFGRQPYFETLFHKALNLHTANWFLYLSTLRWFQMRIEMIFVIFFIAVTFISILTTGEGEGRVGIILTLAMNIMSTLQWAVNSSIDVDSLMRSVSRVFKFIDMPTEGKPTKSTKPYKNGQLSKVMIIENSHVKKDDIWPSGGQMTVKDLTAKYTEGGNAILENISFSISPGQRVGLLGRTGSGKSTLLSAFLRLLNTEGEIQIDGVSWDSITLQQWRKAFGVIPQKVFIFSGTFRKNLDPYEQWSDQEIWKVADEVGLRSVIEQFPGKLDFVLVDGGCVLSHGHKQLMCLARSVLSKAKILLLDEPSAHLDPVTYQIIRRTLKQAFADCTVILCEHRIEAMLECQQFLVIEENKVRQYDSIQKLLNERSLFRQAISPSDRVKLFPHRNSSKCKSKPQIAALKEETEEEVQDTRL

For the compound `O=C(Nc1ncc(C(c2ccccc2Cl)N2CCC(O)C2)s1)C1(c2ccc3c(c2)OCO3)CC1` (centres unmarked) [C18, 1-(benzo[d][1,3]dioxol-5-yl)-N-(5-((2-chlorophenyl)(3-hydroxypyrrolidin-1-yl)methyl)thiazol-2-yl)cyclopropanecarboxamide], on ΔF508-CFTR [1], the ΔF508-CFTR ubiquitination entry is recorded as “little impact on ΔF508-CFTR ubiquitination levels”. For the compound “miR-138 mimic: synthetic nucleic acid with miR-138-like activity, sense SEQ ID NO: 4, antisense SEQ ID NO: 5”, the “ΔF508-CFTR expression and Cl− transport” value with ΔF508-CFTR [2] was “concomitantly increased ΔF508-CFTR expression and Cl^− transport”.
